18 compounds from PubChem BioAssay (NCI) can be followed below.

Experiment in all cases: NCI-60 cell line screen, 48 h
The test system of assay [1] is DLD-1 colon.
The subject of assay [2] is SNB-78 CNS.
The test system of assay [3] is XF 498 CNS.
Assay [4] relates to KM20L2 colon.
For assay [5], the system named is LXFL 529 NSCLC.
Assay [6] relates to HOP-18 NSCLC.
Assay [7] relates to M19-MEL melanoma.
The test system of assay [8] is NCI/ADR-RES ovarian.
In assay [9] the test system is MCF7 breast.
Assay [10] concerns HS 578T breast.

The structures appear in SMILES notation.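 Tested at 5 concentrations; 48 h exposure; 96-well plates; endpoints linearly interpolated, else capped at highest concentration. Here, GI50 denotes the concentration required for 50% inhibition of growth. TGI is the concentration that stops growth completely.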

For `C[CH2][Sn]([CH2]C)([O]C(=O)c1cccc(F)c1)[O][Sn]([CH2]C)([CH2]C)[O]C(=O)c1cccc(F)c1`, the GI50 in [1] is 12.5 µM; in assay [2], 16.3 µM; in assay [3] it was 16.2 µM; in assay [4], 38.4 µM; in assay [5], 10.4 µM; in assay [6], 18.5 µM. Further, the GI50 in assay [7] is 16.8 µM. Further, the TGI in assay [1] was 26.1 µM; in [2], 35.1 µM; in assay [3], 29.8 µM; in assay [4], over 100 µM; in assay [5] it was 22.4 µM; in assay [6], 32.5 µM. In assay [7], this compound registered a TGI of 31.9 µM.

As to `C[CH2][Sn]([Cl])([Cl])[CH2]C`, the GI50 is 36 µM in assay [1]; 20.3 µM in assay [2]; 71.4 µM in assay [4]; 12.5 µM in assay [5]; 27 µM in assay [6]; 26 µM in assay [7]. Also, the TGI was over 100 µM in assay [1]; 46.4 µM in assay [2]; over 100 µM in assay [4]; 25.2 µM in assay [5]; 55.4 µM in assay [6]; over 67.2 µM in assay [7].

As to `CCOc1ccccc1NC(=O)C1=C(C)NC(C)=C(C(=O)Nc2ccccc2OCC)C1c1ccc(NC(C)=O)cc1`, the TGI in assay [1] is over 100 µM; in [2], over 100 µM; in assay [3], 43.5 µM; in [4], 98.9 µM; in assay [5], over 100 µM; in assay [7] it was over 100 µM.

On to `O=P1(O)c2ccccc2Nc2cc(C(F)(F)F)ccc21`, for which the TGI in assay [8], in [9], in [1], in assay [10], in assay [2] and in assay [3] was over 100 µM throughout. Further, the TGI in assay [4], in assay [5], in [6] and in assay [7] was over 100 µM each time.

For the compound `COc1cc([C@@H]2OC(=O)C3C2C(=O)O[C@H]3c2cc(OC)c(OC)c(OC)c2)cc(OC)c1OC` (stereo partly drawn), the TGI in assay [2], in assay [3], in assay [4], in [6] and in assay [7] was over 100 µM throughout.

Regarding `C=CCN=C1NC(=O)C(CC(=O)Nc2ccc(C)cc2)S1` (stereo not drawn), the TGI in assay [1], in assay [3], in assay [4], in assay [5], in assay [6] and in assay [7] was over 100 µM in each case.

Turning to `COC(=O)C(CC(=O)Nc1ccc(Cl)c(Cl)c1)C(=O)C(=O)NC1C2CC3CC(C2)CC1C3` (stereo not drawn), the TGI in assay [2], in assay [4], in assay [5], in [6] and in assay [7] was over 100 µM throughout.

In the case of `N#CC(C#N)=C1SCC(=O)CS1`, the TGI in assay [1], in [2], in [3], in assay [4], in assay [5] and in assay [7] was over 100 µM each time.

Take `COc1cc(C(=O)CC2(O)C(=O)Nc3c(Cl)cc(Cl)cc32)ccc1O` (stereo not drawn): the TGI in [1], in [2], in assay [3], in [4], in assay [5] and in [6] was over 100 µM each time.

Turning to `NC(CCSC(F)F)C(=O)O` (stereo not drawn), the TGI in assay [1], in assay [2], in assay [3], in assay [4], in [5] and in assay [7] was over 100 µM throughout.

Consider `O=C(/C=C1/NC(=O)CS1)Nc1ccccc1`, for which the TGI in assay [1], in assay [2], in [3], in assay [4], in [5] and in assay [6] was over 100 µM in each case. This compound came in with a TGI in assay [7] of over 100 µM.

On to `O=C1C[C@@H]2CCCC[C@@H]2C12SCCS2`, for which the TGI in assay [1], in assay [2], in assay [3], in assay [5] and in [7] was over 100 µM throughout.

Turning to `COc1cc2cccc(NC(=O)c3cc(OC)c(OC)c(OC)c3Br)c2cc1OC`, the TGI in assay [1] is over 100 µM; in assay [2], 49 µM; in [3], 7.37 µM; in assay [4], over 100 µM; in assay [5], 10.9 µM; in [6], 74.4 µM. Moreover, the TGI in assay [7] was determined as 32.5 µM.

For `Cc1ccc(N2C(=O)/C(=C/c3ccc(N(CCC#N)CCC#N)cc3C)N=C2c2cc([N+](=O)[O-])ccc2Cl)cc1`, the TGI in assay [1], in assay [2], in [5], in assay [6] and in assay [7] was over 100 µM each time.

Regarding `O=C1C[C@H]2CC3(CC[C@H]2CN1)OCCO3`, the TGI in assay [1], in assay [2], in [3], in [5] and in assay [7] was over 100 µM in each case.

With `Cc1cc(=O)oc2cc(OCc3nc4ccccc4c(=O)[nH]3)ccc12`, the TGI in assay [1], in [3], in assay [4], in [5], in assay [6] and in assay [7] was over 100 µM throughout.

For the compound `CCOC(=O)NC(=O)c1cn(CCN2CCN(C(=O)NCCCCCCNC(=O)N3CCN(CCn4cc(C(=O)NC(=O)OCC)c(=O)n(CCN(CC)CC)c4=O)CC3)CC2)c(=O)n(CCC(CC)CC)c1=O`, the TGI in assay [1], in assay [2], in assay [4], in assay [5], in assay [6] and in [7] was over 100 µM throughout.

As to `NCCCCN(Cc1nc2ccccc2[nH]1)[C@H]1CCCc2cccnc21`, the GI50 was 26.8 µM in assay [8], 17.8 µM in [9] and 19 µM in assay [10]. Further, the TGI in assay [8] is over 100 µM; in assay [9], over 72.7 µM; in assay [10], over 91.4 µM.
